# Measured values published in patent US7407645B2, “Bioconjugates of metal complexes of nitrogen-containing macrocyclic ligands” (Metaphore Pharmaceuticals, Inc., priority 1995, dated 2008).
# Assay: Relaxivity R1 from proton relaxation times (T1), inversion-recovery, 20 MHz
# Format: physicochemical
# Set-up: unit not given here
# Settings: 100 mM Hepes buffer, pH=7.4, 40° C., slope of 1/T1 versus concentration
# Method: Relaxivity measurements of the complex of Example 1 was determined.
# Proton relaxation times (T1) of the sample in 100 mM Hepes buffer, pH=7.4, at 40° C. were determined from a monoexponential curve fit obtained from inversion-recovery pulse sequences (180°-τ-90°) with a Bruker PC 120/125/10 VTs NMR process analyzer. The spectrometer was calibrated for each sample to assure accurate duration of 90° and 180° radio frequency pulses and appropriate magnetic field strength to match the 20 MHz system operating frequency. The relaxivity (R1) was obtained from the slope of a plot of 1/T1 versus the concentration of paramagnetic compound.
substance,measurement,value
"[Manganese (II) dichloro 2,3-(R,R)-Cyclohexano-6-(S)-{3-(lithocholylamino)-propyl}-1,4,7,10,13-penta-azacclopentadecane] [Example 1]",relaxivity R1,6.09
